Assays:
[1] = system: THP1-Dual™ cells (IRF-Lucia luciferase reporter); test: THP1-Dual™ cell reporter assay; format: cell-based, human; conditions: free drug, 24 h (48 h elsewhere in the source)
Procedure, shortened: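 THP1-Dual cells (~100,000 per well) exposed to compound or ADC in supplemented RPMI-1640 with 10% FBS; supernatant taken at 24 h for compounds or 48 h for ADCs. Secreted IRF-driven Lucia luciferase measured by luminescence with QUANTI-Luc reagent.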

Renca tumor-bearing mice = test: In vivo cytokine assay, Renca tumor-bearing mice; design: species or system mouse; conditions: for IFNγ in plasma / IL1β in plasma / IL12p70 in plasma / IL-6 in plasma / IL-10 in plasma / IP10 in plasma / MCP-1 in plasma / MIP1α in plasma / MIP1β in plasma: 1.86 mg/kg; for systemic pro-inflammatory cytokine (IL-6 and TNF) production: plasma
Procedure: Cytokines were measured in mouse plasma harvested at 3, 6, 24, or 48 hours after treatment with compounds or ADCs using a Milliplex MAP mouse cytokine/chemokine magnetic bead panel assay kit (MCYTOMAG-70k custom 11-plex kit: MCP1, MIP1a, MIP1(3, TNFα, IFNγ, IL-10, IL-12p70, IL-6, IL-1β, IP10, RANTES) and analyzed using a Luminex™ MAGPIX™ Instrument System. Values that were outside of the standard curve range (<3.2 or […]) were either excluded from calculation of the mean values or, when indicated, converted to […] for calculation of the mean values.
Renca cancer cells (ATCC) were cultured in RPMI-1640 (ATCC) with 10% heat-inactivated fetal bovine serum, Pen-Strep (100 U/mL-100 μg/mL), MEM non-essential amino acids (1×), sodium pyruvate (1 mM), and L-glutamine (2 mM). Renca cancer cells were implanted (2*10^6 cells in 200 μL 25% Matrigel) subcutaneously into Balb/c female mice. In some experiments, Renca tumor cells were engineered to express the indicated murine or human target antigen.
(§1) When tumor volumes reached 100 mm^3, the mice were dosed with either compounds or ADCs by intraperitoneal or intravenous injection at the indicated dosing schedule and tumor volumes were monitored twice weekly. Compounds were formulated in 40% PEG400 in saline.
(§2) A syngeneic system was used to assess the ability of the STING agonist ADCs to induce immune responses in vivo and drive an anti-tumor immune response. The Renca system is a subcutaneous, mouse renal adenocarcinoma model. Female Balb/c mice were implanted with 2×10^6 Renca cells subcutaneously in the flank on day 0. When mean tumor size of 100 mm^3 (measured by using the formula Volume (mm^3)=0.5*Length*Width^2 where length is the longer dimension) was reached mice were randomized into treatment groups of ≥5 mice per group. Animals were then treated intraperitoneally (ADCs or compounds) or intravenously (compounds) with the indicated treatment every 7 days, for 3 doses total (or as indicated). Tumor length and width and the weight of the animals was measured throughout the study and tumor volume was calculated using the formula above. Animals were followed until the tumor volume reached ˜1000 mm^3; animals were then euthanized.

[2] = system: human CD228-LL2 tumor-bearing mice; test: In vivo cytokine assay, human CD228-LL2 tumor-bearing mice; design: species or system mouse
Procedure: Cytokines were measured in mouse plasma harvested at 3, 6, 24, or 48 hours after treatment with compounds or ADCs using a Milliplex MAP mouse cytokine/chemokine magnetic bead panel assay kit (MCYTOMAG-70k custom 11-plex kit: MCP1, MIP1a, MIP1(3, TNFα, IFNγ, IL-10, IL-12p70, IL-6, IL-1β, IP10, RANTES) and analyzed using a Luminex™ MAGPIX™ Instrument System. Values that were outside of the standard curve range (<3.2 or >10,000 μg/mL) were either excluded from calculation of the mean values or, when indicated, converted to 3.2 or 10,000 μg/mL for calculation of the mean values.
LL2 cancer cells were engineered using lentiviral transduction to express human CD228. LL2 cells were cultured in DMEM (ATCC) with 10% heat-inactivated fetal bovine serum. Female C57BL/6 mice were implanted with 1×10^6 hCD228-LL2 tumor cells in 100 μL 25% Matrigel in RPMI 1640 medium subcutaneously. Once tumor volumes reached 100 mm^3, mice were randomized into treatment groups and dosed as indicated. […] Stock concentrations of mAb or conjugates were diluted to a desired concentration (with 20 mM His, 6% Trehalose or 0.01% Tween20 in PBS) and injected intraperitoneally (i.p.) or intravenously (i.v.) as indicated. The small molecule was formulated in 40% PEG400 in saline and injected i.v.

Renca cancer cells = test: In vivo anti-tumor activity, Renca tumor model
Procedure: In some experiments, Renca tumor cells were engineered to express the indicated murine or human target antigen.
as §1, §2

[3] = system: wild type (WT) murine bone marrow-derived macrophages; test: Bone marrow-derived macrophage assay, wild type; format: cell-based, mouse; conditions: 24 hours
Procedure: Potency of the compounds described herein was evaluated using mouse bone-marrow derived macrophages cultured from wild type (C57BL/6J, the Jackson Laboratory #000664) or STING-deficient (C57BL/6J-Sting1^gt/J, the Jackson Laboratory #017537) mice. Briefly, mouse bone marrow cells were cultured for 7-10 days in RPMI-1640 (Gibco) with 10% heat-inactivated fetal bovine serum, Pen-Strep (100 U/mL-100 […], Gibco), HEPES (10 mM, Gibco), sodium pyruvate (1 mM, Gibco), GlutaMAX (1×, Gibco), beta-mercaptoethanol ([…], Gibco) and 20-40 ng/mL murine M-CSF (Peprotech, #315-02). Cells were plated in a 96-well flat bottom tissue culture-treated clear polystyrene plate (Corning Costar #3596) at ˜100,000 cells per well in 200 μL with the indicated concentration of the compound. The supernatant was harvested at 24 hours and cytokines were measured using a Milliplex MAP mouse cytokine/chemokine magnetic bead panel assay kit (MCYTOMAG-70k custom 11-plex kit: MCP1, MIP1α, MIP1β, TNFα, IFNγ, IL-10, IL-12p70, IL-1β, IL-6, IP10, RANTES) and analyzed using a Luminex™ MAGPIX™ Instrument System.

[4] = dose 1, 6 h, 0.08 mg/kg Q7Dx3 i.v.
[5] = dose 1, 6 h, 1.5 mg/kg Q7Dx3 i.v.
[6] = dose 2, 6 h, 0.08 mg/kg Q7Dx3 i.v.
[7] = dose 2, 6 h, 1.5 mg/kg Q7Dx3 i.v.
[8] = dose 3, 6 h, 0.08 mg/kg Q7Dx3 i.v.
[9] = dose 3, 6 h, 1.5 mg/kg Q7Dx3 i.v.

SMILES: CCn1nc(C)cc1C(=O)Nc1nc2cc(C(N)=O)cc(OC)c2n1C/C=C/Cn1c(NC(=O)c2cc(C)nn2CC)nc2cc(C(N)=O)cc(OCCCN3CCOCC3)c21.O=C(O)C(F)(F)F.O=C(O)C(F)(F)F.O=C(O)C(F)(F)F [Compound A, (E)-1-(4-(5-carbamoyl-2-(1-ethyl-3-methyl-1H-pyrazole-5-carboxamido)-7-(3-morpholinopropoxy)-1H-benzo[d]imidazol-1-yl)but-2-en-1-yl)-2-(1-ethyl-3-methyl-1H-pyrazole-5-carboxamido)-7-methoxy-1H-benzo[d]imidazole-5-carboxamide tris(2,2,2-trifluoroacetate)]
- relative potency of free drug, Lucia reporter [1]: significantly more potent than (2′, 3′)-Rp,Rpc-diAMPS disodium (Compound B)
- IFNγ in plasma (Renca tumor-bearing mice; 3 h after treatment): 0.3 pg/mL
- IL1β in plasma (Renca tumor-bearing mice; 3 h after treatment): 1.5 pg/mL
- IL12p70 in plasma (Renca tumor-bearing mice; 3 h after treatment): 0.2 pg/mL
- IL-6 in plasma (Renca tumor-bearing mice; 3 h after treatment): 3550 pg/mL
- IL-10 in plasma (Renca tumor-bearing mice; 3 h after treatment): 0.5 pg/mL
- IP10 in plasma (Renca tumor-bearing mice; 3 h after treatment): 4780 pg/mL
- MCP-1 in plasma (Renca tumor-bearing mice; 3 h after treatment): 14500 pg/mL
- MIP1α in plasma (Renca tumor-bearing mice; 3 h after treatment): 1300 pg/mL
- MIP1β in plasma (Renca tumor-bearing mice; 3 h after treatment): 6370 pg/mL
- IFNγ in plasma (Renca tumor-bearing mice; 6 h after treatment): 71.8 pg/mL
- IL1β in plasma (Renca tumor-bearing mice; 6 h after treatment): 0.6 pg/mL
- IL12p70 in plasma (Renca tumor-bearing mice; 6 h after treatment): 0.2 pg/mL
- IL-6 in plasma (Renca tumor-bearing mice; 6 h after treatment): 732 pg/mL
- IL-10 in plasma (Renca tumor-bearing mice; 6 h after treatment): < 3.2 pg/mL
- IP10 in plasma (Renca tumor-bearing mice; 6 h after treatment): 4980 pg/mL
- MCP-1 in plasma (Renca tumor-bearing mice; 6 h after treatment): 10800 pg/mL
- MIP1α in plasma (Renca tumor-bearing mice; 6 h after treatment): 209 pg/mL
- MIP1β in plasma (Renca tumor-bearing mice; 6 h after treatment): 2150 pg/mL
- IFNγ in plasma (Renca tumor-bearing mice; 24 h after treatment): < 3.2 pg/mL
- IL1β in plasma (Renca tumor-bearing mice; 24 h after treatment): 0.3 pg/mL
- IL12p70 in plasma (Renca tumor-bearing mice; 24 h after treatment): < 3.2 pg/mL
- IL-6 in plasma (Renca tumor-bearing mice; 24 h after treatment): 16.4 pg/mL
- IL-10 in plasma (Renca tumor-bearing mice; 24 h after treatment): < 3.2 pg/mL
- IP10 in plasma (Renca tumor-bearing mice; 24 h after treatment): 890 pg/mL
- MCP-1 in plasma (Renca tumor-bearing mice; 24 h after treatment): 540 pg/mL
- MIP1α in plasma (Renca tumor-bearing mice; 24 h after treatment): 41.7 pg/mL
- MIP1β in plasma (Renca tumor-bearing mice; 24 h after treatment): 35.5 pg/mL
- systemic pro-inflammatory cytokine (IL-6 and TNF) production (Renca tumor-bearing mice): induced robust production of IL-6 and TNF
- IFNg, peripheral blood (plasma), mean [2, 4]: 9.8 pg/mL
- IL1b, peripheral blood (plasma), mean [2, 4]: 12.1 pg/mL
- IL-6, peripheral blood (plasma), mean [2, 4]: 346.7 pg/mL
- IL-10, peripheral blood (plasma), mean [2, 4]: 15.8 pg/mL
- IL-12p70, peripheral blood (plasma), mean [2, 4]: 3.0 pg/mL
- IP10, peripheral blood (plasma), mean [2, 4]: 7501.0 pg/mL
- MCP-1, peripheral blood (plasma), mean [2, 4]: 3780.5 pg/mL
- MIP1a, peripheral blood (plasma), mean [2, 4]: 107.1 pg/mL
- MIP1b, peripheral blood (plasma), mean [2, 4]: 474.6 pg/mL
- RANTES, peripheral blood (plasma), mean [2, 4]: 33.9 pg/mL
- TNFa, peripheral blood (plasma), mean [2, 4]: 11.0 pg/mL
- IFNg, peripheral blood (plasma), mean [2, 5]: 392.4 pg/mL
- IL1b, peripheral blood (plasma), mean [2, 5]: 38.0 pg/mL
- IL-6, peripheral blood (plasma), mean [2, 5]: 10532.0 pg/mL
- IL-10, peripheral blood (plasma), mean [2, 5]: 71.5 pg/mL
- IL-12p70, peripheral blood (plasma), mean [2, 5]: 32.3 pg/mL
- IP10, peripheral blood (plasma), mean [2, 5]: >10000 pg/mL
- MCP-1, peripheral blood (plasma), mean [2, 5]: 10000.0 pg/mL
- MIP1a, peripheral blood (plasma), mean [2, 5]: 574.2 pg/mL
- MIP1b, peripheral blood (plasma), mean [2, 5]: 4253.1 pg/mL
- RANTES, peripheral blood (plasma), mean [2, 5]: 1705.3 pg/mL
- TNFa, peripheral blood (plasma), mean [2, 5]: 95.7 pg/mL
- IFNg, peripheral blood (plasma), mean [2, 6]: 11.7 pg/mL
- IL1b, peripheral blood (plasma), mean [2, 6]: 26.2 pg/mL
- IL-6, peripheral blood (plasma), mean [2, 6]: 936.6 pg/mL
- IL-10, peripheral blood (plasma), mean [2, 6]: 9.5 pg/mL
- IL-12p70, peripheral blood (plasma), mean [2, 6]: 9.7 pg/mL
- IP10, peripheral blood (plasma), mean [2, 6]: 9045.3 pg/mL
- MCP-1, peripheral blood (plasma), mean [2, 6]: 7114.6 pg/mL
- MIP1a, peripheral blood (plasma), mean [2, 6]: 206.0 pg/mL
- MIP1b, peripheral blood (plasma), mean [2, 6]: 1550.3 pg/mL
- RANTES, peripheral blood (plasma), mean [2, 6]: 236.6 pg/mL
- TNFa, peripheral blood (plasma), mean [2, 6]: 18.4 pg/mL
- IFNg, peripheral blood (plasma), mean [2, 7]: 1550.6 pg/mL
- IL1b, peripheral blood (plasma), mean [2, 7]: 57.4 pg/mL
- IL-6, peripheral blood (plasma), mean [2, 7]: 22725.1 pg/mL
- IL-10, peripheral blood (plasma), mean [2, 7]: 92.3 pg/mL
- IL-12p70, peripheral blood (plasma), mean [2, 7]: 75.4 pg/mL
- IP10, peripheral blood (plasma), mean [2, 7]: >10000 pg/mL
- MCP-1, peripheral blood (plasma), mean [2, 7]: >10000 pg/mL
- MIP1a, peripheral blood (plasma), mean [2, 7]: 846.6 pg/mL
- MIP1b, peripheral blood (plasma), mean [2, 7]: 5235.4 pg/mL
- RANTES, peripheral blood (plasma), mean [2, 7]: 1906.1 pg/mL
- TNFa, peripheral blood (plasma), mean [2, 7]: 204.0 pg/mL
- IFNg, peripheral blood (plasma), mean [2, 8]: 21.9 pg/mL
- IL1b, peripheral blood (plasma), mean [2, 8]: 66.6 pg/mL
- IL-6, peripheral blood (plasma), mean [2, 8]: 1494.7 pg/mL
- IL-10, peripheral blood (plasma), mean [2, 8]: 36.3 pg/mL
- IL-12p70, peripheral blood (plasma), mean [2, 8]: 220.3 pg/mL
- IP10, peripheral blood (plasma), mean [2, 8]: 7718.5 pg/mL
- MCP-1, peripheral blood (plasma), mean [2, 8]: 5009.1 pg/mL
- MIP1a, peripheral blood (plasma), mean [2, 8]: 270.0 pg/mL
- MIP1b, peripheral blood (plasma), mean [2, 8]: 1009.6 pg/mL
- RANTES, peripheral blood (plasma), mean [2, 8]: 172.9 pg/mL
- TNFa, peripheral blood (plasma), mean [2, 8]: 29.6 pg/mL
- IFNg, peripheral blood (plasma), mean [2, 9]: 1236.8 pg/mL
- IL1b, peripheral blood (plasma), mean [2, 9]: 36.8 pg/mL
- IL-6, peripheral blood (plasma), mean [2, 9]: 14635.1 pg/mL
- IL-10, peripheral blood (plasma), mean [2, 9]: 62.8 pg/mL
- IL-12p70, peripheral blood (plasma), mean [2, 9]: 43.9 pg/mL
- IP10, peripheral blood (plasma), mean [2, 9]: >10000 pg/mL
- MCP-1, peripheral blood (plasma), mean [2, 9]: >10000 pg/mL
- MIP1a, peripheral blood (plasma), mean [2, 9]: 743.4 pg/mL
- MIP1b, peripheral blood (plasma), mean [2, 9]: 4517.1 pg/mL
- RANTES, peripheral blood (plasma), mean [2, 9]: 2533.7 pg/mL
- TNFa, peripheral blood (plasma), mean [2, 9]: 195.3 pg/mL
- tolerability (Renca cancer cells; Renca tumor-bearing mice): less well tolerated
- average weight loss (Renca cancer cells; after the 2nd dose): 6.2%

SMILES: CCn1nc(C)cc1C(=O)Nc1nc2cc(C(N)=O)cc(OC)c2n1C/C=C/Cn1c(NC(=O)c2cc(C)nn2CC)nc2cc(C(N)=O)cc(OCCCNC)c21 [Compound 12a]
- relative potency of free drug, Lucia reporter [1]: less potent than compound 1 and compound A
- cytokine production [3]: induced cytokine production
- systemic pro-inflammatory cytokine (IL-6 and TNF) production (Renca tumor-bearing mice): induced robust production of IL-6 and TNF
- tumor growth / anti-tumor activity (Renca cancer cells; Renca, q7dx3): limited anti-tumor efficacy

— patent US20250255981A1, “IMMUNOMODULATORY ANTIBODY-DRUG CONJUGATES” (Seagen Inc., priority 2022, published 2025)
